Data published in patent US20260250300A1, “POLYMORPHS AND THEIR USE FOR TREATING CANCER” (Cairn Therapeutics, Inc., priority 2023, published 2026).

Key:
Assay type in all cases: physicochemical
[1] = Relative stability of Form A hydrate and Form C anhydrate in ethanol and ethanol/water slurries
Method: The relative stability of the crystalline Form A hydrate and Compound 1 crystalline Form C anhydrate was evaluated in ethanol and ethanol/water between ambient temperature and 50° C.
Crystalline Form C anhydrate was prepared by slurrying crystalline Form A hydrate in absolute ethanol at 40° C. for about two days (Sample 1, FIG. 25A). Attempts to prepare amorphous material by cold precipitation and lyophilization were carried out but were unsuccessful. […] The lyophilization experiment produced material having an XRPD pattern consistent with crystalline Form E DMSO solvate (FIG. 25C).
To prepare the crystalline Form C anhydrate, 249 mg of Compound 1 crystalline Form A hydrate was placed in an 8 mL glass vial followed by 2.0 mL of absolute ethanol. The resulting slurry was stirred magnetically at 40° C. for about two days. The slurry was vacuum filtered and the solids allowed to air dry for 15 minutes at room temperature.

[2] = Dynamic vapor sorption (DVS) analysis; conditions: 25° C., 5 to 95% RH
Method: Different polymorphic forms of a compound may have different hygroscopic properties. […] A sample weight of less than 10 mg was loaded into a metal-coated quartz pan for analysis. The sample was analyzed at 25° C. after equilibrated to 5% relative humidity (RH) in 10% RH steps from 5 to 95% RH (adsorption cycle) and from 95 to 5% RH (desorption cycle). The movement from one step to the next occurred either after satisfying the equilibrium criterion of 0.01% weight change in 5 minutes or, if the equilibrium criterion was not met, after 90 minutes. The percent weight change values are calculated using Microsoft Excel®. The DVS analysis was carried out using a TA Instruments Q5000 Dynamic Vapor Sorption analyzer. […]

[3] = Conversion rate of crystalline Form A hydrate to crystalline Form C anhydrate in ethanol at about 50° C., XRPD; conditions: slurry in absolute ethanol at about 50° C., 1 hour
Method: The conversion rate of the crystalline Form A hydrate to the crystalline Form C anhydrate in ethanol at about 50° C. was investigated (Table 25). Slurries were prepared using Compound 1 crystalline Form A hydrate as starting material. […] Each slurry was stirred magnetically at about 50° C. and subsequently vacuum filtered to collect the solid at given times. The resulting solids were analyzed by XRPD immediately. […] A Rigaku SmartLab X-Ray Diffractometer was configured in Bragg-Brentano reflection geometry equipped with a beam stop and knife edge to reduce incident beam and air scatter. […] Spinning rate of 17 rpm was used for crystalline Form C anhydrate analysis. Other parameters are the same as described in Table 27.

[4] = Slurry experiments using Compound 1 crystalline Form A hydrate in methanol and methanol:water, XRPD; conditions: two days, 30 mg
Method: The nature of this peak is unknown. […]
(§1) A Rigaku SmartLab X-Ray Diffractometer was configured in Bragg-Brentano reflection geometry equipped with a beam stop and knife edge to reduce incident beam and air scatter. No filter was used for crystalline Form C anhydrate crystalline Form E DMSO solvate. Spinning rate of 17 rpm was used for crystalline Form C anhydrate analysis. Other parameters are the same as described in Table 27.

[5] = Stability study of crystalline Forms A and C at 25° C./60% RH and 40° C./75% RH, analysed by XRPD; conditions: after 4 weeks
Method: A sample of each of crystalline Forms A and C was placed in an uncapped vial and exposed to 25° C./60% RH and 40° C./75% relative humidity (“RH”) for 4 weeks (Table 24). The resultant samples were analyzed by XRPD at T=1, 2, and 4 weeks to evaluate their physical stability.
as §1

[6] = listed as Compound 1 crystalline Form A hydrate

Row | SMILES | form conversion ([1]; absolute ethanol, about 40° C., about two days) | relative stability (form conversion) ([1]; ethanol and ethanol/water, between ambient temperature and 50° C.) | form conversion ([1]; ethanol at about 50° C., slurrying for four days) | hygroscopicity (DVS) ([2]; listed as Compound 1 Crystalline Form A hydrate) | DVS weight gain [2, 6] | hygroscopicity (DVS) [2, 6] | XRPD Result [3] | XRPD Result ([4]; 95:5 MeOH:water) | XRPD Result ([4]; MeOH) | crystalline Form conversion (physical stability) [5] | DVS weight gain ([2]; listed as Compound 1 Crystalline Form C anhydrate) | DVS weight gain ([2]; listed as Compound 1 crystalline Form C anhydrate) [%]
1 | CN1Oc2cc3c(c4cccc(c24)C1=O)[C@H](CCl)CN3C(=O)c1cc2cc(NC(=O)c3cc4ccccc4[nH]3)ccc2[nH]1 [Crystalline Form A hydrate, (S)—N-(2-(10-(Chloromethyl)-5-methyl-4-oxo-5,8,9,10-tetrahydro-4H-pyrrolo[3′,2′: 5,6]naphtho[1,8-de][1,2]oxazine-8-carbonyl)-1H-indol-5-yl)-1H-indole-2-carboxamide] | converts to the crystalline Form C anhydrate | converted to the crystalline Form C anhydrate except when the water activity of the solvent was greater than 0.31 | converted to crystalline Form C anhydrate | Slightly hygroscopic | less than 0.5% | slightly hygroscopic | converted to crystalline Form C anhydrate completely | remained that of the crystalline Form A hydrate | remained that of the crystalline Form A hydrate | No crystalline Form conversion was observed | – | –
2 | CN1Oc2cc3c(c4cccc(c24)C1=O)[C@H](CCl)CN3C(=O)c1cc2cc(NC(=O)c3cc4ccccc4[nH]3)ccc2[nH]1 [Crystalline Form C anhydrate, (S)—N-(2-(10-(Chloromethyl)-5-methyl-4-oxo-5,8,9,10-tetrahydro-4H-pyrrolo[3′,2′: 5,6]naphtho[1,8-de][1,2]oxazine-8-carbonyl)-1H-indol-5-yl)-1H-indole-2-carboxamide] | – | – | – | – | – | – | – | – | – | – | Weight gain of 0.35% at 5-95% RH | 0.35
